Among the test systems are MCF7 breast; SF-268 CNS; PC-3 prostate; HCT-15 colon; LOX IMVI melanoma; MOLT-4 leukemia; EKVX NSCLC; A549 NSCLC.
Common to all, as to test: NCI anticancer screen, dose series, 48 h

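Results reflect a 48-hour exposure of cells in 96-well plates to compound at five concentrations. GI50 = concentration required for 50% inhibition of growth. TGI: total growth inhibition.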 Where a SMILES comes first, the peptide text is derived from it. The star is where a group is joined. ONb = O=[N+]([O-])c1ccc(CO*)cc1; Boc = CC(C)(C)OC(=O)*

Take `O=C1/C(=C/c2ccccc2O)N=C(c2ccccc2)N1c1nc2ccccc2s1`: the TGI with MCF7 breast was 69.2 µM; with SF-268 CNS, 77.7 µM; in the test with PC-3 prostate, 43.8 µM; in the test on HCT-15 colon, 44.9 µM; in the test with LOX IMVI melanoma, over 100 µM; in the test with MOLT-4 leukemia, 60.7 µM. In the test with EKVX NSCLC, this molecule displayed a TGI of over 100 µM.

With `O=C(O)c1cnc2[nH]ccn2c1=O`, the TGI in the test on MCF7 breast, in the test on SF-268 CNS, in the test with PC-3 prostate, in the test on A549 NSCLC, in the test with HCT-15 colon and in the test with MOLT-4 leukemia was over 100 µM in each case. This molecule also registered a TGI in the test on EKVX NSCLC of over 100 µM.

Consider `CC(C)CC(NC(=O)OC(C)(C)C)C(=O)NC(CCC(=O)OCc1ccc([N+](=O)[O-])cc1)C(=O)OCc1ccc([N+](=O)[O-])cc1` (stereo not drawn) (Boc-Leu-Glu(ONb)-ONb; configuration not given here), for which the TGI in the test on SF-268 CNS was 39.3 µM; with PC-3 prostate it was over 100 µM; with HCT-15 colon it was over 100 µM; in the test on LOX IMVI melanoma, 63.8 µM; in the test on MOLT-4 leukemia, 39.8 µM; in the test on EKVX NSCLC, over 100 µM.

For the molecule `Fc1ccc2nc3n(c2c1)C(c1c(Cl)cccc1Cl)SC3` (configuration not stated), the TGI with MCF7 breast, with SF-268 CNS, in the test with PC-3 prostate, in the test on A549 NSCLC, in the test on HCT-15 colon and with LOX IMVI melanoma was over 100 µM each time. The TGI with MOLT-4 leukemia is over 100 µM.

As to `COc1ccc(/C=C2\N=C(c3ccccc3)N(N=C3NC(=O)CC(=O)N3)C2=O)cc1`, the TGI in the test on MCF7 breast, with SF-268 CNS, in the test with PC-3 prostate, with A549 NSCLC, in the test on HCT-15 colon and in the test with MOLT-4 leukemia was over 100 µM in each case.

`Cn1c2ccccc2c2c(=O)[nH]c(=O)[nH]c21`: the TGI in the test with MCF7 breast, in the test with SF-268 CNS, in the test with A549 NSCLC, in the test on HCT-15 colon, with LOX IMVI melanoma and in the test with MOLT-4 leukemia was over 100 µM each time. Besides, the TGI in the test with EKVX NSCLC is over 100 µM.

For the molecule `CCCCCCCCCCCCCC[n+]1ccc2c(C)c3c(c(C)c2c1)c1cc(O)ccc1n3CC`, the GI50 in the test with PC-3 prostate is 0.356 µM; in the test on HCT-15 colon, 1.21 µM; in the test on EKVX NSCLC, 0.554 µM. In addition, the values for the TGI in the test with PC-3 prostate, in the test with HCT-15 colon and in the test on EKVX NSCLC were 1.33 µM, 3.5 µM and 2.56 µM, respectively.

Regarding `O=C1/C(=C/c2cccc(Br)c2)CSC/C1=C\c1cccc(Br)c1`, the TGI in the test with MCF7 breast is 20.5 µM; in the test with SF-268 CNS it was 24.2 µM; with PC-3 prostate, 10.4 µM; in the test with A549 NSCLC, 41.5 µM; in the test on HCT-15 colon it was 15.4 µM; in the test on LOX IMVI melanoma it was 4.82 µM. Also, the TGI in the test on EKVX NSCLC is 19.9 µM.

Take `COc1ccc2sc(-n3nc4ccccc4c3Nc3nc4ccc(OC)cc4s3)nc2c1`: the TGI with MCF7 breast was 42 µM; in the test on SF-268 CNS, 32.5 µM; in the test with PC-3 prostate, 17.4 µM; with A549 NSCLC it was 18.5 µM; in the test with HCT-15 colon it was over 72.1 µM; with LOX IMVI melanoma, 24.3 µM. For the same molecule, the TGI in the test on EKVX NSCLC is 19.3 µM.

`O=S(=O)(O)ON=C1c2ccccc2-c2ccccc21`: the TGI in the test with MCF7 breast, in the test on SF-268 CNS, in the test on PC-3 prostate, with A549 NSCLC, in the test on LOX IMVI melanoma and in the test on MOLT-4 leukemia was over 100 µM in each case. In the test with EKVX NSCLC, this molecule displayed a TGI of over 100 µM.

Consider `CC(=O)OCC1OC(SC2OC(COC(C)=O)C(OC(C)=O)C(OC(C)=O)C2OC(C)=O)C(OC(C)=O)C(OC(C)=O)C1OC(C)=O` (configuration not stated), for which the TGI in the test on MCF7 breast, in the test on SF-268 CNS, with A549 NSCLC, with HCT-15 colon, with LOX IMVI melanoma and in the test with MOLT-4 leukemia was over 100 µM in each case. The same molecule registered a TGI in the test with EKVX NSCLC of over 100 µM.

As to `CCCCNC(=S)Nc1nc(C(=O)NNC(=S)NC2CCCCC2)cs1`, the TGI in the test on MCF7 breast, in the test on SF-268 CNS, with PC-3 prostate, in the test on A549 NSCLC, in the test with HCT-15 colon and with LOX IMVI melanoma was over 100 µM each time. In the test on EKVX NSCLC, this molecule displayed a TGI of over 100 µM.

Take `CSCCCNC(=O)c1csc(-c2csc(C(CNC(=O)OC(C)(C)C)CNC(=O)OC(C)(C)C)n2)n1`: the TGI with MCF7 breast was over 100 µM; in the test with SF-268 CNS, over 100 µM; with PC-3 prostate, over 100 µM; with HCT-15 colon, over 100 µM; in the test with LOX IMVI melanoma, over 100 µM; in the test with MOLT-4 leukemia it was 43.9 µM. Besides, the TGI with EKVX NSCLC was over 100 µM.

On to `O=C1CCCC/C1=C\c1ccc(Br)cc1`, for which the TGI in the test with MCF7 breast is 7.4 µM; with SF-268 CNS, 36.3 µM; in the test on PC-3 prostate it was over 100 µM; in the test on A549 NSCLC, 67.7 µM; in the test with LOX IMVI melanoma, over 100 µM; in the test on MOLT-4 leukemia it was 6.24 µM. Besides, the TGI in the test with EKVX NSCLC was determined as 62.8 µM.

Consider `CCOC(=O)C1OC(C2(C)OC3(OC4(C=CC3O)OC(C(C)C(=O)C(C)C(O)C(C)CC(C)c3c(Cl)cc(C)c(O)c3C(=O)O)C(C)CC4C)C(C)C2OC)CC1O` (configuration not stated), for which the TGI is 23.1 µM in the test on MCF7 breast; 6.85 µM in the test with SF-268 CNS; 17.3 µM with PC-3 prostate; 7.27 µM in the test on A549 NSCLC; over 20.2 µM with HCT-15 colon; 14.2 µM with LOX IMVI melanoma. The molecule further registered a TGI in the test with EKVX NSCLC of 5.02 µM.

For the molecule `Nc1nc(N)c2ncn(Cc3ccccc3CCl)c2n1`, the TGI in the test with MCF7 breast, in the test with SF-268 CNS, in the test on PC-3 prostate, with A549 NSCLC, in the test with HCT-15 colon and in the test with MOLT-4 leukemia was over 100 µM in each case. Moreover, the TGI in the test with EKVX NSCLC is over 100 µM.

In the case of `Cn1/c(=N\S(=O)(=O)c2ccccc2)n(S(=O)(=O)c2ccccc2)c2ccccc21`, the TGI in the test on SF-268 CNS, in the test on PC-3 prostate, with A549 NSCLC, with HCT-15 colon, with LOX IMVI melanoma and with MOLT-4 leukemia was over 100 µM in each case. In addition, the TGI in the test with EKVX NSCLC was over 100 µM.

For `COc1cc(/C=C/C(=O)c2c(C)nc3ccccc3c2C)ccc1OCCCOc1cc2c(cc1OC)C(=O)N1CCC[C@H]1C=N2`, the GI50 is 0.0326 µM in the test on PC-3 prostate; 0.0268 µM with A549 NSCLC; 0.278 µM in the test with HCT-15 colon; 0.0193 µM in the test with LOX IMVI melanoma; 0.0323 µM in the test on MOLT-4 leukemia; 0.0555 µM in the test on EKVX NSCLC. Also, the TGI with PC-3 prostate was 1.15 µM; in the test on A549 NSCLC, 0.0623 µM; in the test with HCT-15 colon, 1.01 µM; in the test with LOX IMVI melanoma, 0.0602 µM; in the test with EKVX NSCLC, 0.453 µM.

These data come from PubChem BioAssay (NCI).
